{"source": "ChEMBL document CHEMBL1240295", "about": "“Specificity and mechanism of action of some commonly used protein kinase inhibitors” (Biochem J, 2000)", "key": {"[1]": {"biological_target": "Mitogen-activated protein kinase 14 (Homo sapiens) (UniProt Q16539)", "sequence (Q16539 whole entry)": "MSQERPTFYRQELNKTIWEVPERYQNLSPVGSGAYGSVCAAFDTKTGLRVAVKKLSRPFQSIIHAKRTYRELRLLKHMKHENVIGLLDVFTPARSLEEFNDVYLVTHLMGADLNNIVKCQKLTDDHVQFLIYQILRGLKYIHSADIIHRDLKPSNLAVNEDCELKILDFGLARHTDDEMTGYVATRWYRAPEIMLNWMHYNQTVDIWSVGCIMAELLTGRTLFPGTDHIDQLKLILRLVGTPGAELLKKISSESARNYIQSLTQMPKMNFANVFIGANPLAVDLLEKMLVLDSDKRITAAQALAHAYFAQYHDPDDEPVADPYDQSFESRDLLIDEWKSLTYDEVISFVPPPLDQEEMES", "conditions": "at 10 µM", "description": "Inhibition of Gst-tagged human SAPK2a/p38 expressed in Escherichia coli at 10 uM"}, "[2]": {"biological_target": "MAP kinase-activated protein kinase 2 (Homo sapiens, UniProt P49137)", "conditions": "at 10 µM", "description": "Inhibition of Gst-tagged human MAPKAPK2 expressed in Escherichia coli at 10 uM"}, "[3]": {"biological_target": "T1, Serine/threonine-protein kinase Chk1 (Homo sapiens) (UniProt O14757)", "T1 sequence (whole entry)": "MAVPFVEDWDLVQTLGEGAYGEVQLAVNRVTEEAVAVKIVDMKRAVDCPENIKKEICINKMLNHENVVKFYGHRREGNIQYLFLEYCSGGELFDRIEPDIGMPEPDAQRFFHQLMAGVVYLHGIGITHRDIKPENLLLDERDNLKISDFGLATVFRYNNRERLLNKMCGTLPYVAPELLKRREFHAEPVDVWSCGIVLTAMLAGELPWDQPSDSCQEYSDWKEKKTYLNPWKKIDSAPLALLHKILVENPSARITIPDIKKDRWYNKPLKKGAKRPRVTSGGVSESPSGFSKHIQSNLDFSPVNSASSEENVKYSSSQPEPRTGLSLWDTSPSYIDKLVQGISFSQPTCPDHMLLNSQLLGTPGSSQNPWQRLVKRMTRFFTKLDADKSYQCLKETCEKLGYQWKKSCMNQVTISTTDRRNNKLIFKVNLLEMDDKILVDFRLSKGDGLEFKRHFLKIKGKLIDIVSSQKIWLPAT", "conditions": "at 10 µM", "description": "Inhibition of His-tagged human CHK1 expressed in Escherichia coli at 10 uM"}, "[4]": {"biological_target": "Tyrosine-protein kinase Lck (Homo sapiens) (UniProt P06239)", "sequence (P06239 2-509 limits assumed)": "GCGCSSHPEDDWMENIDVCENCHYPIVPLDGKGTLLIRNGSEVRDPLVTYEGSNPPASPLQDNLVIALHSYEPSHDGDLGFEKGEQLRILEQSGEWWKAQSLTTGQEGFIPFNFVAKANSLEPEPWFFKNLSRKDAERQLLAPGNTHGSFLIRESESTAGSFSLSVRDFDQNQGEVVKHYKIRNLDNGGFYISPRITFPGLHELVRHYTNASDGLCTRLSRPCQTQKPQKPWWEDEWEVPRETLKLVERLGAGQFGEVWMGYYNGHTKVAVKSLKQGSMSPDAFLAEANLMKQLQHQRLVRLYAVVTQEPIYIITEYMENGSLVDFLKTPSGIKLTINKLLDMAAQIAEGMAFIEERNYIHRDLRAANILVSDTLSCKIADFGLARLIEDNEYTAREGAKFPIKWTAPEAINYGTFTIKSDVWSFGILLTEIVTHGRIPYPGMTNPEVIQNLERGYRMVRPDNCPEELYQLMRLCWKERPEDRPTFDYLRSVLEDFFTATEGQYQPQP", "conditions": "Sf9, at 10 µM", "description": "Inhibition of His-tagged human LCK expressed in Sf9 cells at 10 uM"}, "[5]": {"biological_target": "RAC-alpha serine/threonine-protein kinase (Homo sapiens) (UniProt P31749)", "conditions": "Sf9, at 10 µM", "description": "Inhibition of human PKBalpha expressed in SF9 cells at 10 uM"}, "[6]": {"biological_target": "Mitogen-activated protein kinase 11 (Homo sapiens) (UniProt Q15759)", "sequence (Q15759 whole entry)": "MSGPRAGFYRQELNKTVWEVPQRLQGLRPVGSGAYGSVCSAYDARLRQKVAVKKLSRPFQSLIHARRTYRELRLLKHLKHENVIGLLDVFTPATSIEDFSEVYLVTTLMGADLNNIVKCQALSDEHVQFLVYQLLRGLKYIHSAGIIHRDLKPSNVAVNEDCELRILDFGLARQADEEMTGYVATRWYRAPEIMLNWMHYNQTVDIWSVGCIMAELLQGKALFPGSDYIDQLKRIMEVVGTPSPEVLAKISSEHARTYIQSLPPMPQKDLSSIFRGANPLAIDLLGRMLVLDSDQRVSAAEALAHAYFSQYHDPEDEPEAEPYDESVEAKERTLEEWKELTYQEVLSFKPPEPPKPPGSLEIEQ", "conditions": "at 10 µM", "description": "Inhibition of Gst-tagged human SAPK2b/p38--beta-2 expressed in Escherichia coli at 10 uM"}, "[7]": {"biological_target": "T2, Mitogen-activated protein kinase 13 (Homo sapiens) (UniProt O15264)", "T2 sequence (whole entry)": "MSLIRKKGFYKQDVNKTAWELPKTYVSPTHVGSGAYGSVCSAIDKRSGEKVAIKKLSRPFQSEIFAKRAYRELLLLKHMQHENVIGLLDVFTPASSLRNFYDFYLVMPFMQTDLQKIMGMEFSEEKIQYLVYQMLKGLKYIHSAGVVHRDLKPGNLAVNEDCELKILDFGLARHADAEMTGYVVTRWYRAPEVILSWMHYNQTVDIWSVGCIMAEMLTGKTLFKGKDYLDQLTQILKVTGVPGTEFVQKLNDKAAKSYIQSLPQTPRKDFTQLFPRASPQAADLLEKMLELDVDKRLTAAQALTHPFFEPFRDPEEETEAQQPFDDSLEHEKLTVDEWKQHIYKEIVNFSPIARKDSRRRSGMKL", "conditions": "at 10 µM", "description": "Inhibition of Gst-tagged human SAPK4/p38delta expressed in Escherichia coli at 10 uM"}, "[8]": {"test": "Inhibition of PHK from rabbit skeletal muscle", "type": "tissue-based, Oryctolagus cuniculus, Muscle tissue"}, "[9]": {"biological_target": "Ribosomal protein S6 kinase alpha-5 (Homo sapiens, UniProt O75582)", "sequence (O75582 whole entry, looked up)": "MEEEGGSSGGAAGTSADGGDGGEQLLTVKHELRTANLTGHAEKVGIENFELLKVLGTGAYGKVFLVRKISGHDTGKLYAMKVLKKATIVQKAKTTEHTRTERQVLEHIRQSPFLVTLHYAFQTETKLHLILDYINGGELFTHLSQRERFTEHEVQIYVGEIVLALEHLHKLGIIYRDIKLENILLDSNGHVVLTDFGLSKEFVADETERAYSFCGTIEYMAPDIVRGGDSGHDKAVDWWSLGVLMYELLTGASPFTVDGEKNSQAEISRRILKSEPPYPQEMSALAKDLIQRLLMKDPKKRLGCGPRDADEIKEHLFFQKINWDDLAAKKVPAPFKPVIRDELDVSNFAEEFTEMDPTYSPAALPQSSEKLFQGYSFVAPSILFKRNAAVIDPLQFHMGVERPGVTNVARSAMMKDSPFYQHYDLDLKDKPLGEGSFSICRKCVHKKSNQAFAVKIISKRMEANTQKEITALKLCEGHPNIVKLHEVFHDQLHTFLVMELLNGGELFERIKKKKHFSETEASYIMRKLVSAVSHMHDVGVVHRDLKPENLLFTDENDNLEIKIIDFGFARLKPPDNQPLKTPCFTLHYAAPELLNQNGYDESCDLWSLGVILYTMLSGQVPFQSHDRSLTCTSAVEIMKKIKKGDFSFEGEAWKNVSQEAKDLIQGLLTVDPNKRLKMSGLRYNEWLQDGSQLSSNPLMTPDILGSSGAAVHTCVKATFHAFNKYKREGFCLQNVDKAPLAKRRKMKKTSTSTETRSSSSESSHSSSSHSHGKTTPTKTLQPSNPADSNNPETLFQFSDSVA", "conditions": "Sf9, at 10 µM", "description": "Inhibition of His-tagged human MSK1 expressed in Sf9 cells at 10 uM"}, "[10]": {"biological_target": "Ribosomal protein S6 kinase beta-1 (Homo sapiens, UniProt P23443)", "sequence (P23443 whole entry, looked up)": "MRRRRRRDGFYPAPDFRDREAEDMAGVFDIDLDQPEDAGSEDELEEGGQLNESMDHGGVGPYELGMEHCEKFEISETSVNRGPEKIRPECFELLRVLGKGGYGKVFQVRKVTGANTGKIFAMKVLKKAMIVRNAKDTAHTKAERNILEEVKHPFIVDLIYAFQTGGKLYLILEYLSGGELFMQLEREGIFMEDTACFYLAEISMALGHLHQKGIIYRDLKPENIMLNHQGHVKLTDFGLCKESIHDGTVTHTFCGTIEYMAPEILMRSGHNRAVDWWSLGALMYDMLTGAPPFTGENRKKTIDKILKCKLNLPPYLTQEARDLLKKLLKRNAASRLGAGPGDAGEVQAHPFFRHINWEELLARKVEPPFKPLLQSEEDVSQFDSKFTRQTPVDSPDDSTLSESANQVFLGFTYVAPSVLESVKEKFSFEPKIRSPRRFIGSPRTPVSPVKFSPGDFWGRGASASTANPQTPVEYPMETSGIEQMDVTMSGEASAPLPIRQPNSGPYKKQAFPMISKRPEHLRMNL", "conditions": "at 10 µM", "description": "Inhibition of His-tagged human S6K1 expressed in Escherichia coli at 10 uM"}, "Rattus norvegicus": {"species_on_record": "Rattus norvegicus", "conditions": "at 10 µM", "description": "Inhibition of rat liver AMPK at 10 uM"}, "Oryctolagus cuniculus [11]": {"species_on_record": "Oryctolagus cuniculus", "conditions": "at 10 µM", "description": "Inhibition of rabbit MKK1 expressed in Escherichia coli at 10 uM"}, "[12]": {"test": "Inhibition of bovine heart PKA", "design": "species or system Bos taurus"}, "[13]": {"biological_target": "3-phosphoinositide-dependent protein kinase 1 (Homo sapiens) (UniProt O15530)", "sequence (O15530 whole entry, looked up)": "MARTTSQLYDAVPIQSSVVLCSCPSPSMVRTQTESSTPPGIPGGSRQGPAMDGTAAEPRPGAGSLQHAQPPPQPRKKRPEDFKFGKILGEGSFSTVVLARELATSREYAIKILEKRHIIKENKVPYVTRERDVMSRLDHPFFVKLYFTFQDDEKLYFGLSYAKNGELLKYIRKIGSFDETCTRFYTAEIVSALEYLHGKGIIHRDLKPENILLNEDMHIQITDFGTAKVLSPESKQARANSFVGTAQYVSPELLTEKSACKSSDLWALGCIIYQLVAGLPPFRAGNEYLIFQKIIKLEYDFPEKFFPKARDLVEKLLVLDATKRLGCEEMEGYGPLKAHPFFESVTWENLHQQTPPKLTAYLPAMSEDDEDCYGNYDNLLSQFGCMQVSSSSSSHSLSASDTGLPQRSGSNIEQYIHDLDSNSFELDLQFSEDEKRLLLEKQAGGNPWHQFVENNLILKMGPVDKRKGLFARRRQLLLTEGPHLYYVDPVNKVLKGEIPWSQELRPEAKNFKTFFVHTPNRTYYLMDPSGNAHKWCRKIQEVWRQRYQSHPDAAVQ", "conditions": "Sf21, at 10 µM"}, "[14]": {"biological_target": "Mitogen-activated protein kinase 8 (Homo sapiens) (UniProt P45983)", "sequence (P45983 whole entry)": "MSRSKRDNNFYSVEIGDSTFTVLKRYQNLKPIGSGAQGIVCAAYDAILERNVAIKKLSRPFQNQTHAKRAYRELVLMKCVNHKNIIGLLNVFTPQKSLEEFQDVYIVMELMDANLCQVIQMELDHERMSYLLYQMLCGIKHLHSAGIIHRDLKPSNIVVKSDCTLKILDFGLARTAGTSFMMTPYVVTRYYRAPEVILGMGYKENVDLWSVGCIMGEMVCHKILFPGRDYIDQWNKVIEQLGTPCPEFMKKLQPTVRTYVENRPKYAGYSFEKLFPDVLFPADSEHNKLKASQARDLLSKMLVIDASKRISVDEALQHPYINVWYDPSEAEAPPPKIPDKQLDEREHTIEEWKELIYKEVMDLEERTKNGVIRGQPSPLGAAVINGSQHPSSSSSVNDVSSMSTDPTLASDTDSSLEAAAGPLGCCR", "conditions": "at 10 µM", "description": "Inhibition of Gst-tagged human JNK1a1 expressed in Escherichia coli at 10 uM"}, "[15]": {"biological_target": "Casein kinase II (Homo sapiens) (UniProt P67870+P68400+P19784)", "conditions": "Sf9, at 10 µM", "description": "Inhibition of His-tagged human CK2 expressed in Sf9 cells at 10 uM"}, "[16]": {"biological_target": "T3, Serine/threonine-protein kinase Sgk1 (Homo sapiens) (UniProt O00141)", "T3 sequence (whole entry)": "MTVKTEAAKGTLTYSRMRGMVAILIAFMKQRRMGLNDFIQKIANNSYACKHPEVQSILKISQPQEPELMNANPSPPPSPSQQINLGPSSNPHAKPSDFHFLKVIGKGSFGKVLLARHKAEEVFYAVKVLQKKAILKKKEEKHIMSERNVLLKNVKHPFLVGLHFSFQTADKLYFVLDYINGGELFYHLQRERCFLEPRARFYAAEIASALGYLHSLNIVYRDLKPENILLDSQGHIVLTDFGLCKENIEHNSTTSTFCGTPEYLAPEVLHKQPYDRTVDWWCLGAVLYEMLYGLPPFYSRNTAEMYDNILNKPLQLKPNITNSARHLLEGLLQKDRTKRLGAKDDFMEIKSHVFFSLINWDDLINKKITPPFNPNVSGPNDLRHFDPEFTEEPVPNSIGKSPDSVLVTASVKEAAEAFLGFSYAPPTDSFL", "conditions": "Sf9, at 10 µM", "description": "Inhibition of His-tagged human SGK expressed in Sf9 cells at 10 uM"}, "Bos taurus": {"species_on_record": "Bos taurus", "conditions": "at 10 µM", "description": "Inhibition of bovine heart PKA at 10 uM"}, "[17]": {"biological_target": "Mitogen-activated protein kinase 1 (Homo sapiens) (UniProt P28482)", "conditions": "at 10 µM", "description": "Inhibition of Gst-tagged human MAPK2/ERK2 expressed in Escherichia coli at 10 uM"}, "Oryctolagus cuniculus [18]": {"species_on_record": "Oryctolagus cuniculus", "conditions": "Muscle tissue, at 10 µM", "description": "Inhibition of MAPKAPK1b from rabbit skeletal muscle at 10 uM"}, "[19]": {"biological_target": "T4, MAP kinase-activated protein kinase 5 (Homo sapiens) (UniProt Q8IW41)", "T4 sequence (whole entry)": "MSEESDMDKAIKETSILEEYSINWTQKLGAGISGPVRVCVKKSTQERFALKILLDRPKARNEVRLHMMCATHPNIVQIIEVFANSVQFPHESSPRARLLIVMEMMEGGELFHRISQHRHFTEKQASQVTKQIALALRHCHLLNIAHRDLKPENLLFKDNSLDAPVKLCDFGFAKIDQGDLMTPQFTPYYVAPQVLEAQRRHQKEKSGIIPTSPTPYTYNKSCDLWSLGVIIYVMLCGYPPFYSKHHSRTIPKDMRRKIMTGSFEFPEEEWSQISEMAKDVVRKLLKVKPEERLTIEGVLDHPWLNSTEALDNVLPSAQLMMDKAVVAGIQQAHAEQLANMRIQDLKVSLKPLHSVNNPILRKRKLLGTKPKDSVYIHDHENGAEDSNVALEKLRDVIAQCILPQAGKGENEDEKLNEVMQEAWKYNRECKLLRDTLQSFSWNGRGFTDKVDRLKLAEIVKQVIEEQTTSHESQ", "conditions": "Sf9, at 10 µM", "description": "Inhibition of His-tagged human PRAK expressed in Sf9 cells at 10 uM"}, "[20]": {"biological_target": "T5, Mitogen-activated protein kinase 12 (Homo sapiens) (UniProt P53778)", "T5 sequence (whole entry)": "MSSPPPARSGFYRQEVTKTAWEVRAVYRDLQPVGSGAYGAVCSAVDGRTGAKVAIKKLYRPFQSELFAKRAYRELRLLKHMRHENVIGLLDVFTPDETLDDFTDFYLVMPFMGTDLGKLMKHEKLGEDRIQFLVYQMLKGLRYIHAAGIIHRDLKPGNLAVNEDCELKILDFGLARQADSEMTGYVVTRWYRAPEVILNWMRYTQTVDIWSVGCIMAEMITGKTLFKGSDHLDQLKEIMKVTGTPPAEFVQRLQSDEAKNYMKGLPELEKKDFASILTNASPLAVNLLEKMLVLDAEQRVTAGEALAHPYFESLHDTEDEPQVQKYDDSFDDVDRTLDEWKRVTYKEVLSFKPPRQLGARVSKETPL", "conditions": "at 10 µM", "description": "Inhibition of Gst-tagged human SAPK3/p38gamma expressed in Escherichia coli at 10 uM"}, "[21]": {"biological_target": "Protein kinase C alpha type (Homo sapiens, UniProt P17252)", "conditions": "at 10 µM", "description": "Inhibition of His-tagged human PKCalpha expressed in Escherichia coli at 10 uM"}, "[22]": {"biological_target": "Glycogen synthase kinase-3 beta (Homo sapiens, UniProt P49841)", "conditions": "Sf21, at 10 µM", "description": "Inhibition of His-tagged human GSK3b expressed in Sf21 cells at 10 uM"}, "Oryctolagus cuniculus [23]": {"species_on_record": "Oryctolagus cuniculus", "conditions": "Muscle tissue, at 10 µM", "remark": "listed apart in the source", "description": "Inhibition of PHK from rabbit skeletal muscle at 10 uM"}, "[24]": {"biological_target": "Rho-associated protein kinase 2 (Rattus norvegicus) (UniProt Q62868)", "sequence (Q62868 whole entry, looked up)": "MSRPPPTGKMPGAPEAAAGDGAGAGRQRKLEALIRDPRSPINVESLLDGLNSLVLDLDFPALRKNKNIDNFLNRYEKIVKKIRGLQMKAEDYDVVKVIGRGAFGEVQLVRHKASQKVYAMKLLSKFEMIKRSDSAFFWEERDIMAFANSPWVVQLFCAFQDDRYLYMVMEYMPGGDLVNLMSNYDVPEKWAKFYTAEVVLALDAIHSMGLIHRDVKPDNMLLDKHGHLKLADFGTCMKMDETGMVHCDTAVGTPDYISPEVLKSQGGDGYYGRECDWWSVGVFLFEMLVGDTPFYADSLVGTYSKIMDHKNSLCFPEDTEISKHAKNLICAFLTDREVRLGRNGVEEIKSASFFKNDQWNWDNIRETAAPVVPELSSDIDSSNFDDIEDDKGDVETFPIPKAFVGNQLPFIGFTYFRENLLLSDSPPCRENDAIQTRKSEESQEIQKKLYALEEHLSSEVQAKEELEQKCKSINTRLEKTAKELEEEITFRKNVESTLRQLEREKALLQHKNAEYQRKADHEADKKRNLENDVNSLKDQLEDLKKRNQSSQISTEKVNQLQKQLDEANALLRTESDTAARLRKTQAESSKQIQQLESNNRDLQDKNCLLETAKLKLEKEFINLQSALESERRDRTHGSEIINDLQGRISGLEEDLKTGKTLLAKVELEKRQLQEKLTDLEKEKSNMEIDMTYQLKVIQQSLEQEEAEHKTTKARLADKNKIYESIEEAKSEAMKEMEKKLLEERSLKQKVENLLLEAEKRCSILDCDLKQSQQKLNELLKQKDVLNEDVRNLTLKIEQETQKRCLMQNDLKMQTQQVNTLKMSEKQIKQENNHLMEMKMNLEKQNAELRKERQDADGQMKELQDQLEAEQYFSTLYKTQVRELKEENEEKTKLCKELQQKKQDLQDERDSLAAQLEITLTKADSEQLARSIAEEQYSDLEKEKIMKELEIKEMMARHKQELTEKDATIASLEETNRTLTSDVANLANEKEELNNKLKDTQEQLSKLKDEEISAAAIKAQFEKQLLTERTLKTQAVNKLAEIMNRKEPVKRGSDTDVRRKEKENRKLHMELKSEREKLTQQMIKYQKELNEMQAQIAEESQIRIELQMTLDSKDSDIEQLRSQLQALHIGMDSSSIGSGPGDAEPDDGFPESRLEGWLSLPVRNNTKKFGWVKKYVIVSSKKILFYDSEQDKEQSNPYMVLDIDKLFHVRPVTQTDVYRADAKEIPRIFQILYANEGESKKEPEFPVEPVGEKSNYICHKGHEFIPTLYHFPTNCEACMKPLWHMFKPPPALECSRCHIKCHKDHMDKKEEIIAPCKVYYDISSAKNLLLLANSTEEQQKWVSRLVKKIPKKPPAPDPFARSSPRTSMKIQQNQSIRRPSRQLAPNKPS", "conditions": "Sf9, at 10 µM", "description": "Inhibition of rat ROCK2 expressed in Sf9 cells at 10 uM"}}}
{"smiles": "CCCCCCOC(=O)[C@@]1(O)C[C@H]2O[C@]1(C)n1c3ccccc3c3c4c(c5c6ccccc6n2c5c31)C(=O)NC4", "values": [{"measurement": "residual activity", "setting": "[1]", "value": 103, "unit": "%"}, {"measurement": "residual activity", "setting": "[2]", "value": 62, "unit": "%"}, {"measurement": "residual activity", "setting": "[3]", "value": 13, "unit": "%"}, {"measurement": "residual activity", "setting": "[4]", "value": 46, "unit": "%"}, {"measurement": "residual activity", "setting": "[5]", "value": 36, "unit": "%"}, {"measurement": "residual activity", "setting": "[6]", "value": 98, "unit": "%"}, {"measurement": "residual activity", "setting": "[7]", "value": 95, "unit": "%"}, {"measurement": "IC50", "setting": "[8]", "value": 11, "unit": "nM"}, {"measurement": "residual activity", "setting": "[9]", "value": 39, "unit": "%"}, {"measurement": "residual activity", "setting": "[10]", "value": 66, "unit": "%"}, {"measurement": "residual activity", "setting": "Rattus norvegicus", "value": 22, "unit": "%"}, {"measurement": "residual activity", "setting": "Oryctolagus cuniculus [11]", "value": 20, "unit": "%"}, {"measurement": "IC50", "setting": "[12]", "value": 3300, "unit": "nM"}, {"measurement": "residual activity", "setting": "[13]", "value": 7, "unit": "%"}, {"measurement": "residual activity", "setting": "[14]", "value": 81, "unit": "%"}, {"measurement": "residual activity", "setting": "[15]", "value": 95, "unit": "%"}, {"measurement": "residual activity", "setting": "[16]", "value": 29, "unit": "%"}, {"measurement": "residual activity", "setting": "Bos taurus", "value": 39, "unit": "%"}, {"measurement": "residual activity", "setting": "[17]", "value": 57, "unit": "%"}, {"measurement": "level, % of control", "setting": "Oryctolagus cuniculus [18]", "value": 23, "unit": "%"}, {"measurement": "residual activity", "setting": "[19]", "value": 58, "unit": "%"}, {"measurement": "residual activity", "setting": "[20]", "value": 95, "unit": "%"}, {"measurement": "residual activity", "setting": "[21]", "value": 87, "unit": "%"}, {"measurement": "residual activity", "setting": "[22]", "value": 39, "unit": "%"}, {"measurement": "level, % of control", "setting": "Oryctolagus cuniculus [23]", "value": 0, "unit": "%"}, {"measurement": "residual activity", "setting": "[24]", "value": 84, "unit": "%"}]}
